According to patent US11156599B2, “Assay for telomere length regulators” (The Johns Hopkins University, priority 2015, dated 2021):

Tests used:
Type in all cases: cell-based, mouse
[1] = test system: de novo telomere addition on chr4 in SL13 cells; test: ADDIT assay (Addition of de novo initiated telomeres): modified STELA PCR and PacBio sequencing
Text: To examine potential mammalian genes that regulate telomere length, an assay was developed that allows visualization of telomere addition in vivo, referred here as ADDIT (Addition of de novo initiated telomeres). In a chromosomally stable CASTEiJ mouse fibroblast cell line, chromosome 4 (chr4) was modified to generate an internal 480 bp telomere ‘seed’ sequence followed by a unique I-Sce1 endonuclease cut site (FIG. 1A). The length of seed sequence was based on an early study showing that 400 bp of telomere repeats can act as functional telomeres. Using Southern blot analysis, two independent HYG-positive clones were identified, clone 1L and 1M, with a single chr4 allele correctly modified (data not shown).
To better visualize the telomere addition on the I-Sce1 cut telomere seed, the single telomere length analysis (STELA) (Baird et al., 2004, Hum Mol Genet 13, 1515-1524), a PCR-based approach that can measure telomere lengths from individual chromosome ends was modified. The STELA assay employs annealing and ligation of a linker, ‘telorette’, with TTAGGG and a unique 20-nucleotide sequence to the G-rich 3′ telomere overhang followed by PCR of the telomere from a ‘teltail’ primer and primer in the HYG sequence on the engineered chromosome (FIG. 2). The PCR product lengths will be proportional to the telomere lengths at the cleaved chr4 allele. As a control, to amplify the un-extended cut chromosome in vitro, a different linker, ‘IScerette’ was designed, which has a 4-nt homology to the 4-nt 3′ overhang created by the I-Sce1 endonuclease at the cleavage site (FIG. 2). […] This in vitro IScerette PCR product serves as a marker for the base line length of the cut, unextended telomere seed sequence.
To further verify the longer STELA PCR products represent de novo telomere addition, the PCR products were sequenced with Pacific Biosciences (PACBIO®) next generation sequencing technology. The PACBIO® platform produces longer reads and is less GC bias compared to other next generation sequencing platforms. While errors were present in the sequence as expected, the telomere repeats were easily recognizable. All of the reads from the PACBIO® were filtered and only those that had unique HYG sequence followed by telomere sequence and the ‘teltail’ primer sequence were examined. This assures that only full length of STELA PCR products were analyzed. The reads were then aligned at the junction between the HYG sequence and the telomere repeats. Wild-type TTAGGG repeats were colored orange and variant telomere repeats were colored in darker orange (FIG. 3A). Some of these variants arose due to errors in sequencing. An error rate similar to the published error rate of PACBIO® sequencing, 10-15% was observed. The errors were uniformly distributed over the reference sequence, dominated by point insertions and deletions, as expected for PACBIO® sequencing. There were three regions of divergent sequence in the original construct that are evident as darker orange stripes in the aligned reads (see for reference, in vitro IScelrette). These are small variation in TTAGGG sequence in the original SL13 clone and serve as useful internal reference points.
The original STELA protocol used for human cells (Baird et al., 2004, Hum Mol Genet 13, 1515-1524) was modified to measure telomere lengths on the de novo end of chr4 in SL13 cells. Briefly, genomic DNA was extracted using Puregene Core Kit A ^TM (Qiagen). 4 μg of genomic DNA was digested with SphI (NEB) and later diluted to 10 ng/μl in water. For the in vitro IScerette sample, genomic DNA was digested with SphI and I-SceI (NEB) prior to ligation. The ligation was carried out at 35° C. for at least 12 hrs in a volume of 10 μl containing 10 ng of digested genomic DNA, 0.9 μM of telorette linkers (mixture of telorette 1 to 6) or IScerette linker and 0.5 U of T4 DNA ligase (NEB) in 1× T4 ligation buffer. […]

SL13 cells [2] = test: Cell cycle profile by propidium iodide staining and flow cytometry; details: 200 ng/ml colcemid or 2.5 mM thymidine, 24 hrs
Method: SL13 cells were grown in DMEM (Gibco) supplemented with 1% Penicillin/Streptomycin/Glutamine and 10% Tet system approved FBS (Clontech, #631107). Final concentration of 2 μg/ml of doxycycline was added in the media to induce I-Sce1 expression. Typically cells were collected post 48 hours of doxcycline treatment. To arrest cells in different cell cycle phases, cells were treated with either final concentration of 200 ng/ml colcemid (Gibco KaryoMAX Colcemid Solution, #15212-012) or 2.5 mM Thymidine (Sigma, #T-1895).
Cell cycle phase was accessed by DNA content using propidium iodide (PI) staining and flow cytometry analysis. Briefly, cell pellets were washed with 1× PBS at 500× g for 5 minutes and resuspended in 500 μl of 1× PBS. 4.5 ml of ice cold 70% ethanol was added drop by drop, and incubated overnight at 4° C. Samples were washed with 5 ml 1× PBS and incubated with 500 μl of PI-Triton resuspension buffer at room temperature for ≥30 minutes protected from light. PI-Triton resuspension buffer was made of 0.1% Triton™ X-100, 200 μg/ml RNase A, 20 μg/ml PI (Invitrogen, #P3566) in 1× PBS. PI-stained samples were transferred to strainer tubes (BD Falcon) and run on FACSCalibur™ flow cytometry (BD Biosciences). Cell cycle profiles were analyzed utilizing the Dean-Jet-Fox™ model in FlowJo™ software (FlowJo™).

HA-tagged I-Sce1 = test: Quantitative RT-PCR of HA-tagged I-Sce1 expression; details: 200 ng/ml colcemid or 2.5 mM thymidine, 48 hrs; normalized to HPRT
Method: To measure HA-tagged I-Sce1 expression levels, quantitative RT-PCR was performed as described in 2.4.5. Primers used are the following: HA-ISce1-FOR, 5′-[…]-3′ (SEQ ID NO: 143); ISce1-REV2, 5′-[…]-3′ (SEQ ID NO: 144); HPRT_F, 5′-[…]-3′ (SEQ ID NO: 145); HPRT_R, 5′-[…]-3′ (SEQ ID NO: 146).

SL13 cells [3] = test: Southern blot of genomic DNA for de novo telomere addition smear in arrested cells; details: cells arrested in G1 phase versus control cells and G2/M cells
Text: To examine the in vivo chr4 cleavage and de novo telomere addition, genomic DNA extracted from SL13 cells arrested at different cell phases and treated with doxycycline for various time points were digested with Ncol restriction enzyme (NEB) and further analyzed by Southern blot as described previously in Example 1 with a random primed α-32P-labeled HYG probe.

CN[C@H]1CCc2cc(OC)c(OC)c(OC)c2-c2ccc(OC)c(=O)cc21 [colcemid]
PacBio reads with de novo telomere addition in cells held in G2/M phase ([1]; 200 ng/ml colcemid, 48 hrs): significant percentage of PacBio® reads with de novo telomere addition | cell cycle phase of arrest (SL13 cells [2]): arrested in G2/M phase | I-Sce1 expression in cells arrested at different phases (HA-tagged I-Sce1): no significant difference

CN1CC[C@H](c2c(O)cc(O)c3c(=O)cc(-c4ccccc4Cl)oc23)[C@H](O)C1 [flavopiridol]
elongation beyond the chr4 I-Sce1-induced cut base line ([1]; Southern blot analysis of STELA PCR products, 400 nM flavopiridol): minimal elongation

Cc1cn([C@H]2C[C@H](O)[C@@H](CO)O2)c(=O)[nH]c1=O [thymidine]
'smear' representative of de novo telomere addition (SL13 cells [3]): even less ‘smear’ | cell cycle phase of arrest (SL13 cells [2]): G1/early S phase | I-Sce1 expression in cells arrested at different phases (HA-tagged I-Sce1): no significant difference
